Source: PMC5517430, “2,3,7,8-Tetrachlorodibenzo-p-dioxin (TCDD)-elicited effects on bile acid homeostasis: Alterations in biosynthesis, enterohepatic circulation, and microbial metabolism” (Scientific Reports, 2017)

Test system: Slc6a6
Experiment: Hepatic RNA-Seq differential gene expression (fold change, P1(t), ED50, BMD, BMDL)
Type: in vivo, mouse
Conditions: C57BL/6, mouse, liver, oral; male mice, TCDD every 4 d for 28 d
Method: Frozen ileal epithelium scrapings and liver samples were homogenized in TRIzol (Ambion, Waltham, MA) using a Mixer Mill 300 tissue homogenizer (Retsch, Germany) and total RNA was isolated as previously described. RNA was quantified using a Nano-drop spectrophotometer (Thermo Scientific, Wilmington, DE) at 260 nm, and purity was assessed using the A260/A280 ratio and the Caliper LabChip GX (Perkin Elmer, Waltham, MA).
Dose-dependent gene expression was examined using RNA-Seq performed at the MSU Research Technology Support Facility (RTSF) Genomics Core (rtsf.natsci.msu.edu/genomics). Ileal libraries from three independent biological replicates (n = 3) were prepared using the Ovation Mouse RNA-Seq System 1–16 sample preparation kit (NuGen, San Carlos, CA), with an additional DNase step. Libraries were quantified and sequenced as previously described, using a read depth of ~30 M per sample[33], [67]. Quality was determined using FASTQC v0.11.3 and adaptor sequences were removed using Trimmomatic v0.33. Reads were mapped to the mouse reference genome (GRCm38 release 81) using Bowtie2 v2.2.6 and TopHat2 v2.1.0. Alignments were converted to SAM format using SAMTools v1.2.0. For TCDD-mediated differential gene expression, fold changes were calculated relative to vehicle controls. Hepatic RNA-Seq analysis was previously published. Genes were considered differentially expressed if |fold change| ≥ 1.5 and statistical P1(t) value ≥ 0.8 at one or more doses. RNA-Seq datasets for the ileal epithelium and liver were deposited in the Gene Expression Omnibus (GEO; accession number GSE89430 and GSE87519, respectively). The RNA-Seq results (fold changes, P1(t) values) for each gene discussed in the manuscript have been compiled in Supplementary Table S1. […] Estimation of benchmark dose (BMD) and BMD lower confidence limit (BMDL) was performed using BMDExpress[69] as previously described, and has been included in Supplementary Table S1.

Clc1cc2c(cc1Cl)Oc1cc(Cl)c(Cl)cc1O2 [TCDD, 2,3,7,8-tetrachlorodibenzo-p-dioxin]
fold induction at 28 d: 1.8
